From ChEMBL document CHEMBL3507680, “University of Dundee, Gates Library screen for HepG2 cell viability” come the findings set out here.

The data set in a line: Human HepG2 cell viability assay in 384 well format. Set-up: dose 125 nL, time 70.5 hour; cytotoxicity at 70.5 h: concentration not given beside the values. In kind it is toxicity, cell-based. Particulars: HepG2 cells, read-out: Inhibition.
Regarding `Cc1cc(=O)n2nc(Oc3ccc(C#N)cc3Cl)sc2n1`, the cytotoxicity at 70.5 h is -28%.

As for `CC1C(=O)NCCN1CCOc1ccc(C#N)cc1` (centres undefined), the cytotoxicity at 70.5 h is -21.1%.

In the case of `CC(C)(C)c1n[nH]cc1CNC1CCC(O)CC1` (centres undefined), the cytotoxicity at 70.5 h was -19.6%.

`Cc1nc(NC(=O)NCCCN2CCC(C(N)=O)CC2)sc1C`: the cytotoxicity at 70.5 h is -19.5%.

As to `CCC(Nc1ccc(CCN2CCOCC2)cc1)C(N)=O` (centres undefined), the cytotoxicity at 70.5 h is -19.6%.

Take `Cc1cc(F)ccc1N1CCCC(NC(=O)CCc2ccncc2)C1` (centres undefined): the cytotoxicity at 70.5 h is -23.5%.

As to `CCOC(=O)C(C)Nc1ccc(CCN2CCOCC2)cc1` (centres undefined), the cytotoxicity at 70.5 h is -16.3%.

With `O=C(CNc1ccc(OC2CCOC2)cc1)NCc1ccco1` (centres undefined), the cytotoxicity at 70.5 h is -21.4%.

With `Cc1c(C(=O)NCCCS(C)(=O)=O)cccc1-c1ccccn1`, the cytotoxicity at 70.5 h amounted to 7.88%.

Regarding `Cc1cnn(CCCNC(=O)NCCC(=O)Nc2ccccc2)c1`, the cytotoxicity at 70.5 h was -11.8%.

Consider `CCc1cc(N2CCC(NCc3ccc(C)o3)CC2)ncn1`, for which the cytotoxicity at 70.5 h worked out at 9.42%.

Turning to `CCN(Cc1nc(Cc2ccccc2)no1)C1CC1`, the cytotoxicity at 70.5 h was -4.11%.

On to `Cc1ccc2nc(CN3CCCCC3C(=O)N3CCOCC3)cn2c1` (centres undefined), for which the cytotoxicity at 70.5 h turned out to be 7.36%.

Consider `CC(C)c1nc(C2CCCN2CCOCC2CC2)no1` (centres undefined), for which the cytotoxicity at 70.5 h was -15.5%.

`CC(C)c1nc(C2CCCN2CCc2ccccn2)no1` (centres undefined): the cytotoxicity at 70.5 h was -15.3%.

With `O=C(CNc1ccc(OC2CCOC2)cc1)NCc1cccs1` (centres undefined), the cytotoxicity at 70.5 h is -18.3%.

With `Cc1c(C(=O)NCCC(=O)N2CCCC2)cccc1-c1ccccn1`, the cytotoxicity at 70.5 h was -17.7%.

Regarding `Cc1cc(CC(=O)NC2CCCN(c3ccccc3F)C2=O)n[nH]1` (centres undefined), the cytotoxicity at 70.5 h was found to be 2.16%.

For `O=C(CCCn1ccnc1)NC1CCCN(c2ccccc2Cl)C1` (centres undefined), the cytotoxicity at 70.5 h was -18%.

`Cc1csc(N2CCN(CCCN3CCCC3=O)CC2)n1`: the cytotoxicity at 70.5 h is -0.2%.

Consider `Cc1ccc(S(=O)(=O)NC(=O)c2cc(S(C)(=O)=O)ccc2C)s1`, for which the cytotoxicity at 70.5 h was -0.802%.

As for `O=C(NCCCn1cccn1)c1csc2c1CCCC2`, the cytotoxicity at 70.5 h was -11.3%.

In the case of `CC(C)Oc1nnc(SCC(=O)NCC(=O)N2CCCC2)s1`, the cytotoxicity at 70.5 h is -10.4%.

With `Cc1cc(NCC2CCN(c3ccccc3)C2)n2ncnc2n1` (centres undefined), the cytotoxicity at 70.5 h is -1.33%.

In the case of `Cc1cc(C)c(CNC(=O)N(C)Cc2nnc3n2CCC3)c(=O)[nH]1`, the cytotoxicity at 70.5 h was -10.3%.

In the case of `Cc1csc(CNC(=O)N(C)Cc2nnc3n2CCC3)n1`, the cytotoxicity at 70.5 h is -12.1%.

In the case of `Cc1cccc(-c2nc(C)nn2CN2CCC3(CC2)OCCO3)c1`, the cytotoxicity at 70.5 h came out at 11.8%.

For the compound `Cc1cnn(C2CN(Cc3noc(-c4ccccc4)n3)C2)c1`, the cytotoxicity at 70.5 h was -7.62%.

As for `Cc1cc(NC2CCN(c3ccccc3)C2)n2ncnc2n1` (centres undefined), the cytotoxicity at 70.5 h was -5.01%.

Consider `CCN(CC)S(=O)(=O)c1ccc(CNC(=O)c2cc(C)on2)cc1`, for which the cytotoxicity at 70.5 h is -2.55%.

For the compound `O=C(NCCN1CCOCC1)Nc1cc(F)ccc1-n1cccn1`, the cytotoxicity at 70.5 h was -0.85%.

As for `NC(=O)CN1CCC(Nc2ccnc3ccc(Cl)cc23)CC1`, the cytotoxicity at 70.5 h is -1.05%.

Consider `Cc1ccc(S(C)(=O)=O)cc1C(=O)NS(=O)(=O)c1ccc(Cl)cc1`, for which the cytotoxicity at 70.5 h was -4.48%.

For the compound `Cc1nn(C)cc1C(=O)N1CCC(CSc2ccccc2)C1` (centres undefined), the cytotoxicity at 70.5 h was -1.58%.

As to `Cc1cccc(-c2nc(C)nn2CN2CCN(c3ncccn3)CC2)c1`, the cytotoxicity at 70.5 h is -5.76%.

As to `Cc1csc(N2CCCN(C(=O)CCN3CCCC3=O)CC2)n1`, the cytotoxicity at 70.5 h is -8.02%.

For the compound `CCc1ncnc(N(C)CC2CCCCO2)c1F` (centres undefined), the cytotoxicity at 70.5 h came out at 2.36%.

Take `Cc1ncsc1C(=O)NCCN1CCCCCC1=O`: the cytotoxicity at 70.5 h was -12.3%.

`COCCN(C)c1cnn(C)c(=O)c1Br`: the cytotoxicity at 70.5 h is -14.7%.

For `CC(c1ncc(-c2ccccc2)o1)N1CCN(C(=O)N(C)C)CC1` (centres undefined), the cytotoxicity at 70.5 h was -2.55%.

On to `CN(CCc1ccccn1)c1cnn(C)c(=O)c1Br`, for which the cytotoxicity at 70.5 h was -11.5%.

Take `Cc1cc(=O)n2nc(Oc3cccc(C(N)=O)c3)sc2n1`: the cytotoxicity at 70.5 h is -25%.

Take `Cc1cc(=O)n2nc(Oc3ccc(F)c(F)c3)sc2n1`: the cytotoxicity at 70.5 h is 40.7%.

Regarding `Cc1cc(=O)n2nc(Oc3cc(Cl)cc(Cl)c3)sc2n1`, the cytotoxicity at 70.5 h was -19.3%.

`Cc1ncsc1C(=O)NCCCN1CCCCCC1=O`: the cytotoxicity at 70.5 h was -7.13%.

For the compound `CC(C)Oc1ncccc1CNC(=O)NC(C)c1cccs1` (centres undefined), the cytotoxicity at 70.5 h is -21%.

As for `O=C(NCc1cc(Br)cs1)Nc1cn[nH]c1`, the cytotoxicity at 70.5 h was -23.7%.

On to `O=C(NCc1csc(Br)c1)Nc1cn[nH]c1`, for which the cytotoxicity at 70.5 h was 39.3%.

As to `Cc1cc(Cl)c(C)c(S(=O)(=O)N2CCN(Cc3ccncc3)CC2)c1Cl`, the cytotoxicity at 70.5 h is -25.9%.

Regarding `CC(=O)N1CC[C@@H]2O[C@H](C(=O)Nc3nc(C)cs3)C[C@@H]21`, the cytotoxicity at 70.5 h was -3.43%.

On to `CCN(C(=O)c1nc2c(s1)CCCN2S(C)(=O)=O)C(C)C`, for which the cytotoxicity at 70.5 h was determined as 13.1%.

Take `c1cc(COC[C@@]23CCC[C@@H]2CN(C2CCOCC2)C3)ccn1`: the cytotoxicity at 70.5 h is -2.91%.

Turning to `O=C1CO[C@@H]2CN(S(=O)(=O)c3ccccc3F)C[C@H]2N1`, the cytotoxicity at 70.5 h was -3.37%.

As for `Cn1cc(CN2CCc3onc(C(=O)Nc4cccnc4)c3C2)cn1`, the cytotoxicity at 70.5 h is -3.27%.

For `CN(C)C(=O)[C@H]1CCS(=O)(=O)[C@@H]2CN(c3ncc(F)cn3)C[C@H]12`, the cytotoxicity at 70.5 h is 23.5%.

As for `O=S(=O)(c1cccs1)N1Cc2nc(COCC3CC3)oc2C1`, the cytotoxicity at 70.5 h was -5.06%.

In the case of `CC(=O)N1CCC2(CC1)CN(C(C)C)c1ccc(F)cc12`, the cytotoxicity at 70.5 h is -1.77%.

For the compound `Cc1ccc2c(c1)C1(CCN(C(N)=O)CC1)CN2CC1CC1`, the cytotoxicity at 70.5 h was -1.07%.

On to `CC(C)N(C)Cc1ncn2c1CN(C(=O)C1CCCO1)CCC2` (centres undefined), for which the cytotoxicity at 70.5 h is -0.921%.

For `c1cc2nc(C3CCNCC3)nn2cc1NC1CCC1`, the cytotoxicity at 70.5 h is 23.2%.

Consider `CCc1ncnc2c1CCN(S(=O)(=O)c1ccccc1)CC2`, for which the cytotoxicity at 70.5 h came out at 3.38%.

Turning to `CN(C)C[C@@H]1C[C@@H]2CN(Cc3nccn3C)CC[C@@H]2N1CC1CC1`, the cytotoxicity at 70.5 h was -0.157%.

For the compound `CCS(=O)(=O)N1Cc2cncn2CC(C(=O)NCC2CC2)C1` (centres undefined), the cytotoxicity at 70.5 h was 1.86%.

Turning to `Cn1cc(C2COC3(CCN(C(=O)Cc4ccccc4)CC3)C2)cn1` (centres undefined), the cytotoxicity at 70.5 h was -8.09%.

As to `Cc1cccc(S(=O)(=O)N2Cc3nccn3CC(CN(C)C)C2)c1` (centres undefined), the cytotoxicity at 70.5 h was -8.23%.

On to `O=C1N(c2ccsc2)CCC12CCCN(c1ncc(F)cn1)C2` (centres undefined), for which the cytotoxicity at 70.5 h was -9.83%.

`CCOCC1CN(S(=O)(=O)c2ccccc2)Cc2nccn2C1` (centres undefined): the cytotoxicity at 70.5 h amounted to 13.5%.

For the compound `COCC1CC2(CCN(Cc3nc(C)cs3)CC2)CO1` (centres undefined), the cytotoxicity at 70.5 h was -8.71%.

Regarding `CCS(=O)(=O)N1CCc2c(COCc3ccncc3)cncc2C1`, the cytotoxicity at 70.5 h is 18.9%.

In the case of `CN(C)CCNCC1COCc2c(-c3ccnn3C)nnn2C1` (centres undefined), the cytotoxicity at 70.5 h came out at 16.1%.

Regarding `CC(=O)N1CCC2(CC1)c1ncc(-c3ccc(F)cc3)n1CCN2C`, the cytotoxicity at 70.5 h was -3.18%.

Take `O=C(NCc1ccccc1)N1CCc2ncnc(NC3CC3)c2CC1`: the cytotoxicity at 70.5 h is -3.8%.

On to `CC(C)CN1C[C@H]2N(c3ncccn3)CCC[C@@]2(C(=O)NCC2CC2)C1`, for which the cytotoxicity at 70.5 h was -3.44%.

On to `CC(C)(C)c1n[nH]cc1CNC1CCC(C(F)(F)F)CC1` (centres undefined), for which the cytotoxicity at 70.5 h is -0.127%.

Turning to `Cn1cc(C(=O)NCc2cncc3c2CCN(S(C)(=O)=O)C3)cn1`, the cytotoxicity at 70.5 h is 0.567%.

As for `Cn1cc(C(=O)NCc2cncc3c2CCN(c2ccccn2)C3)cn1`, the cytotoxicity at 70.5 h was found to be 17.4%.

With `COCC1COCCC12CCN(S(=O)(=O)c1cccnc1)CC2` (centres undefined), the cytotoxicity at 70.5 h was -1.01%.

As for `Cc1noc(C)c1CN1CCn2cc(CN3CCCCC3)nc2C1`, the cytotoxicity at 70.5 h is -3.15%.

As to `CN1C(=O)CCC12CCCN(C(=O)c1ccncc1F)C2` (centres undefined), the cytotoxicity at 70.5 h is -5.46%.

Turning to `Cn1cnc(S(=O)(=O)N2CC3(CCN(c4ccccc4)C3)C2)c1`, the cytotoxicity at 70.5 h was found to be 20.3%.

Regarding `c1ccc(N2CCOC3(CCCN(c4ncccn4)C3)C2)nc1` (centres undefined), the cytotoxicity at 70.5 h is -5.71%.

Consider `Cc1ccc(N2CCC3(CCC(=O)N3Cc3ccncc3)CC2)nn1`, for which the cytotoxicity at 70.5 h amounted to 0.778%.

Regarding `O=C(c1ccco1)N1CC[C@@H]2CN(C3CCOCC3)CCO[C@@H]2C1`, the cytotoxicity at 70.5 h was 0.698%.

Take `CC1c2ncc(Cn3cccn3)n2CCN1c1ncccn1` (centres undefined): the cytotoxicity at 70.5 h was -8.84%.

In the case of `CN(C)c1nc(N2CCCC2)nc2c1CCN(Cc1nccn1C)CC2`, the cytotoxicity at 70.5 h stood at 8.52%.

Take `CCCN1CCC(c2nc3ccc(-c4ccccc4)cn3n2)CC1`: the cytotoxicity at 70.5 h is -10.7%.

Regarding `O=C(C1CCOC1)N1C[C@H]2CN(Cc3ccncc3)C(=O)[C@H]2C1` (some centres undefined), the cytotoxicity at 70.5 h is -9.99%.

On to `CCN(C)c1ncnc2c1CCN(S(=O)(=O)c1ccccc1)CC2`, for which the cytotoxicity at 70.5 h is -5.89%.

Take `CC(=O)N1CCC(c2nc3ccc(NC4CCC4)cn3n2)CC1`: the cytotoxicity at 70.5 h is -5.56%.

Turning to `Cc1ccc(CS(=O)(=O)N2Cc3c(CN(C)C)nn(C)c3C2)cc1`, the cytotoxicity at 70.5 h is -4.61%.

In the case of `O=c1cc(CNS(=O)(=O)C2CC2)nc2n1CCCN(CC1CC1)C2`, the cytotoxicity at 70.5 h was -5.1%.

Regarding `CN(C)CCN1C[C@@H]2CN(c3ccccc3)C[C@@H]2C1=O`, the cytotoxicity at 70.5 h worked out at 23.6%.

For the compound `Cc1cccc(N2CC[C@H]3[C@H](CO[C@@H]3CN(C)Cc3ccco3)C2)n1`, the cytotoxicity at 70.5 h worked out at 2.69%.

As to `Cc1ccc(N2CC[C@H]3CO[C@H](CN(C)Cc4ccco4)[C@H]3C2)nn1`, the cytotoxicity at 70.5 h was -0.777%.

As to `CCOC(=O)[C@]12CCCN(Cc3cccs3)C[C@H]1CN(C(C)C)C2`, the cytotoxicity at 70.5 h was 1.55%.

Turning to `Cc1ccc(CN2C[C@H](OCCN(C)C)[C@H]3COC[C@H]32)o1`, the cytotoxicity at 70.5 h was -0.961%.

As for `c1coc(CN2C[C@@H]3CN(Cc4ccoc4)CCO[C@@H]3C2)c1`, the cytotoxicity at 70.5 h was -1.5%.

Consider `Cn1cnc(S(=O)(=O)N2CC3(CCN(CC4CC4)C3)C2)c1`, for which the cytotoxicity at 70.5 h was 14.6%.

Turning to `CCCN1CCC(c2nc3ccc(-c4ccncc4)cn3n2)CC1`, the cytotoxicity at 70.5 h was determined as 19.7%.
